The text below walks through data of patent publication US10780074B2, “Compounds and uses thereof” (Sunovion Pharmaceuticals Inc., priority 2017, dated 2020).

The assay relates to behaviors of compound-treated mice. Briefly: Neuropharmacological Assay (SmartCube). It counts as in vivo. Particulars: for minimal effective dose: Mus musculus, ip, 0.25 h, dose having 50% or more total activity in SmartCube, i.p., read-out: MED (minimal effective dose); for AD: ADHD (probability that activity matches class) / AG: analgesic (probability that activity matches class) / AX: anxiolytic (probability that activity matches class) / CE: cognitive enhancer (probability that activity matches class) / DP: anti-depressant (probability that activity matches class) / MS: mood stabilizer (probability that activity matches class) / PS: anti-psychotic (probability that activity matches class) / SD: sedative hypnotic (probability that activity matches class) / UN: uncharacterized CNS activity (probability that activity matches class): i.p. 15 min before behavioral test, most efficacious dose(s) of 3 doses. The method in brief: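 Behavioral signatures were captured automatically by video, and each drug class received a probability for the best of three i.p. doses given 15 min pre-test (vehicle: Pharmasolve/PEG/propylene glycol). Potency is given as MED, the lowest mpk dose (typically 0.3–30) reaching 50% or more total activity.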

What is called minimal effective dose is the lowest level tested that produced the effect sought.

SMILES strings stand for the structures. Where a name gives a salt, the structure may show the parent alone.

Consider `CNC[C@@H]1OCCCc2c(-c3ccncc3)cccc21` (single isomer, unassigned) [Compound 148], for which the minimal effective dose was 10 to 30 mg/kg, the “AD: ADHD (probability that activity matches class)” value (“AD: ADHD” for short) is listed as “+ (LOQ ≤ + <5%)”, the “AG: analgesic (probability that activity matches class)” value (“AG: analgesic” for short) was “+ (LOQ ≤ + <5%)” and the “AX: anxiolytic (probability that activity matches class)” value (from here on “AX: anxiolytic”) is on record as “++ (5% ≤ ++ <25%)”. The “CE: cognitive enhancer (probability that activity matches class)” value (shortened to “CE: cognitive enhancer”) is listed as “+ (LOQ ≤ + <5%)”, the “DP: anti-depressant (probability that activity matches class)” value (“DP: anti-depressant” below) was “+ (LOQ ≤ + <5%)”, the “MS: mood stabilizer (probability that activity matches class)” value (shortened to “MS: mood stabilizer”) is listed as “+ (LOQ ≤ + <5%)” and the “PS: anti-psychotic (probability that activity matches class)” value (“PS: anti-psychotic” for short) is listed as “+ (LOQ ≤ + <5%)”. The “SD: sedative hypnotic (probability that activity matches class)” value (shortened to “SD: sedative hypnotic”) is reported as “+ (LOQ ≤ + <5%)” and the “UN: uncharacterized CNS activity (probability that activity matches class)” value (shortened to “UN: uncharacterized CNS activity”) is given as “+ (LOQ ≤ + <5%)”.

Take `CNC[C@H]1OCCCc2c(-c3ccncc3)cccc21` (single isomer, unassigned) [Compound 149]: the minimal effective dose was no more than 3 mg/kg, the “AD: ADHD” value was “++ (5% ≤ ++ <25%)”, the “AG: analgesic” value is “+ (LOQ ≤ + <5%)” and the “AX: anxiolytic” value was “++ (5% ≤ ++ <25%)”. Moreover, the “CE: cognitive enhancer” value was “+ (LOQ ≤ + <5%)”, the “DP: anti-depressant” value is recorded as “++++ (50% ≤ ++++)”, the “MS: mood stabilizer” value is “+ (LOQ ≤ + <5%)” and the “PS: anti-psychotic” value is “+ (LOQ ≤ + <5%)”. In addition, the “SD: sedative hypnotic” value is reported as “+ (LOQ ≤ + <5%)” and the “UN: uncharacterized CNS activity” value is listed as “++ (5% ≤ ++ <25%)”.

`NC[C@@H]1OCCCc2c(-c3ccncc3)cccc21` (single isomer, unassigned) [Compound 150]: the minimal effective dose fell in the range of 10 to 30 mg/kg, the “AD: ADHD” value was “+ (LOQ ≤ + <5%)”, the “AG: analgesic” value is listed as “+ (LOQ ≤ + <5%)” and the “AX: anxiolytic” value is given as “++ (5% ≤ ++ <25%)”. Further, the “CE: cognitive enhancer” value is on record as “+ (LOQ ≤ + <5%)”, the “DP: anti-depressant” value is “++ (5% ≤ ++ <25%)”, the “MS: mood stabilizer” value is “+ (LOQ ≤ + <5%)” and the “PS: anti-psychotic” value is “+ (LOQ ≤ + <5%)”. Also, the “SD: sedative hypnotic” value was “+ (LOQ ≤ + <5%)” and the “UN: uncharacterized CNS activity” value is “+ (LOQ ≤ + <5%)”.

For `NC[C@H]1OCCCc2c(-c3ccncc3)cccc21` (single isomer, unassigned) [Compound 151], the minimal effective dose lay in the range of 3 to 10 mg/kg, the “AD: ADHD” value is “+ (LOQ ≤ + <5%)”, the “AG: analgesic” value is given as “+ (LOQ ≤ + <5%)” and the “AX: anxiolytic” value is given as “++ (5% ≤ ++ <25%)”. Moreover, the “CE: cognitive enhancer” value was “+ (LOQ ≤ + <5%)”, the “DP: anti-depressant” value was “++++ (50% ≤ ++++)”, the “MS: mood stabilizer” value is “+ (LOQ ≤ + <5%)” and the “PS: anti-psychotic” value is listed as “+ (LOQ ≤ + <5%)”. Besides, the “SD: sedative hypnotic” value was “+ (LOQ ≤ + <5%)” and the “UN: uncharacterized CNS activity” value is listed as “+ (LOQ ≤ + <5%)”.

Regarding `CNC[C@@H]1OCCCc2c(-c3ccccn3)cccc21` (single isomer, unassigned) [Compound 156, hydrochloride salt], the minimal effective dose lay in the range of 10 to 30 mg/kg, the “AD: ADHD” value is “+ (LOQ ≤ + <5%)”, the “AG: analgesic” value was “+ (LOQ ≤ + <5%)” and the “AX: anxiolytic” value is “+ (LOQ ≤ + <5%)”. Moreover, the “CE: cognitive enhancer” value is on record as “+ (LOQ ≤ + <5%)”, the “DP: anti-depressant” value is recorded as “+ (LOQ ≤ + <5%)”, the “MS: mood stabilizer” value is reported as “+ (LOQ ≤ + <5%)” and the “PS: anti-psychotic” value is listed as “+ (LOQ ≤ + <5%)”. Besides, the “SD: sedative hypnotic” value is listed as “+ (LOQ ≤ + <5%)” and the “UN: uncharacterized CNS activity” value is on record as “+ (LOQ ≤ + <5%)”.

Turning to `CNC[C@H]1OCCCc2c(-c3ccccn3)cccc21` (single isomer, unassigned) [Compound 157, hydrochloride salt], the minimal effective dose lay in the range of 10 to 30 mg/kg, the “AD: ADHD” value was “+ (LOQ ≤ + <5%)”, the “AG: analgesic” value is “+ (LOQ ≤ + <5%)” and the “AX: anxiolytic” value is recorded as “++ (5% ≤ ++ <25%)”. The “CE: cognitive enhancer” value is listed as “+ (LOQ ≤ + <5%)”, the “DP: anti-depressant” value is listed as “+ (LOQ ≤ + <5%)”, the “MS: mood stabilizer” value is given as “+ (LOQ ≤ + <5%)” and the “PS: anti-psychotic” value is recorded as “+ (LOQ ≤ + <5%)”. Besides, the “SD: sedative hypnotic” value was “+ (LOQ ≤ + <5%)” and the “UN: uncharacterized CNS activity” value is recorded as “+ (LOQ ≤ + <5%)”.

Regarding `CNC[C@@H]1OCCCc2c(-c3ccncn3)cccc21` (single isomer, unassigned) [Compound 164, hydrochloride salt], the minimal effective dose was 10 to 30 mg/kg, the “AD: ADHD” value is “+ (LOQ ≤ + <5%)”, the “AG: analgesic” value is “+ (LOQ ≤ + <5%)” and the “AX: anxiolytic” value is on record as “+ (LOQ ≤ + <5%)”. The “CE: cognitive enhancer” value is “+ (LOQ ≤ + <5%)”, the “DP: anti-depressant” value was “+ (LOQ ≤ + <5%)”, the “MS: mood stabilizer” value is “+ (LOQ ≤ + <5%)” and the “PS: anti-psychotic” value is reported as “+ (LOQ ≤ + <5%)”. Moreover, the “SD: sedative hypnotic” value was “+ (LOQ ≤ + <5%)” and the “UN: uncharacterized CNS activity” value is listed as “+ (LOQ ≤ + <5%)”.

For `CNC[C@H]1OCCCc2c(-c3ccncn3)cccc21` (single isomer, unassigned) [Compound 165, hydrochloride salt], the minimal effective dose lay within 10 to 30 mg/kg, the “AD: ADHD” value is listed as “+ (LOQ ≤ + <5%)”, the “AG: analgesic” value is reported as “+ (LOQ ≤ + <5%)” and the “AX: anxiolytic” value is listed as “+ (LOQ ≤ + <5%)”. Further, the “CE: cognitive enhancer” value is recorded as “+ (LOQ ≤ + <5%)”, the “DP: anti-depressant” value was “++ (5% ≤ ++ <25%)”, the “MS: mood stabilizer” value is listed as “+ (LOQ ≤ + <5%)” and the “PS: anti-psychotic” value is given as “+ (LOQ ≤ + <5%)”. Besides, the “SD: sedative hypnotic” value is “+ (LOQ ≤ + <5%)” and the “UN: uncharacterized CNS activity” value was “+ (LOQ ≤ + <5%)”.

As for `NC[C@@H]1OCCCc2c(-c3ccncn3)cccc21` (single isomer, unassigned) [Compound 166], the minimal effective dose was 10 to 30 mg/kg, the “AD: ADHD” value is listed as “+ (LOQ ≤ + <5%)”, the “AG: analgesic” value was “+ (LOQ ≤ + <5%)” and the “AX: anxiolytic” value was “+ (LOQ ≤ + <5%)”. Moreover, the “CE: cognitive enhancer” value was “+ (LOQ ≤ + <5%)”, the “DP: anti-depressant” value is “+ (LOQ ≤ + <5%)”, the “MS: mood stabilizer” value is given as “+ (LOQ ≤ + <5%)” and the “PS: anti-psychotic” value is on record as “+ (LOQ ≤ + <5%)”. Also, the “SD: sedative hypnotic” value is “+ (LOQ ≤ + <5%)” and the “UN: uncharacterized CNS activity” value is “+ (LOQ ≤ + <5%)”.

Take `NC[C@H]1OCCCc2c(-c3ccncn3)cccc21` (single isomer, unassigned) [Compound 167]: the minimal effective dose was 10 to 30 mg/kg, the “AD: ADHD” value is recorded as “+ (LOQ ≤ + <5%)”, the “AG: analgesic” value is given as “+ (LOQ ≤ + <5%)” and the “AX: anxiolytic” value was “+ (LOQ ≤ + <5%)”. For the same compound, the “CE: cognitive enhancer” value was “+ (LOQ ≤ + <5%)”, the “DP: anti-depressant” value is “+ (LOQ ≤ + <5%)”, the “MS: mood stabilizer” value was “+ (LOQ ≤ + <5%)” and the “PS: anti-psychotic” value was “+ (LOQ ≤ + <5%)”. In addition, the “SD: sedative hypnotic” value is reported as “+ (LOQ ≤ + <5%)” and the “UN: uncharacterized CNS activity” value is given as “+ (LOQ ≤ + <5%)”.

As to `CNC[C@@H]1OCCCc2c(-c3cncs3)cccc21` (single isomer, unassigned) [Compound 168, hydrochloride salt], the minimal effective dose was no more than 3 mg/kg, the “AD: ADHD” value is “++ (5% ≤ ++ <25%)”, the “AG: analgesic” value is recorded as “+ (LOQ ≤ + <5%)” and the “AX: anxiolytic” value is given as “++ (5% ≤ ++ <25%)”. The “CE: cognitive enhancer” value was “+ (LOQ ≤ + <5%)”, the “DP: anti-depressant” value was “++++ (50% ≤ ++++)”, the “MS: mood stabilizer” value is reported as “+ (LOQ ≤ + <5%)” and the “PS: anti-psychotic” value is “+ (LOQ ≤ + <5%)”. In addition, the “SD: sedative hypnotic” value is “++ (5% ≤ ++ <25%)” and the “UN: uncharacterized CNS activity” value was “++ (5% ≤ ++ <25%)”.
